Data reported in US10011595B2 (Merck Sharp & Dohme Corp., priority 2014, dated 2018).

Biological target: human orexin-2 receptor (Homo sapiens (Human), UniProt O43614)
Assay: FLIPR Ca2+ Flux Assay, orexin-2 receptor
Assay type: cell-based
Conditions: CHO cells expressing the human orexin-2 receptor; agonist 70 pM Ala-6,12 orexin-A; read-out: hOX2R FLIPR IC50
Experimental: In a typical experiment the OX1 and OX2 receptor antagonistic activity of the compounds of the present invention was determined in accordance with the following experimental method. For intracellular calcium measurements, Chinese hamster ovary (CHO) cells expressing the rat orexin-1 receptor or the human orexin-2 receptor, are grown in Iscove's modified DMEM containing 2 mM L-glutamine, […], 1% hypoxanthine-thymidine supplement, 100 U/ml penicillin, 100 μg/ml streptomycin and 10% heat-inactivated fetal calf serum (FCS). The cells are seeded at 20,000 cells/well into Becton-Dickinson black 384-well clear bottom sterile plates coated with poly-D-lysine. All reagents were from GIBCO-Invitrogen Corp. The seeded plates are incubated overnight at 37° C. and 5% CO2. Ala-6,12 human orexin-A as the agonist is prepared as a 1 mM stock solution in 1% bovine serum albumin (BSA) and diluted in assay buffer (HBSS containing 20 mM HEPES, 0.1% BSA and 2.5 mM probenecid, pH7.4) for use in the assay at a final concentration of 70 pM. Test compounds are prepared as 10 mM stock solution in DMSO, then diluted in 384-well plates, first in DMSO, then assay buffer. On the day of the assay, cells are washed 3 times with 100 μl assay buffer and then incubated for 60 min (37° C., 5% CO2) in 60 μl assay buffer containing 1 μM Fluo-4AM ester, 0.02% pluronic acid, and 1% BSA. The dye loading solution is then aspirated and cells are washed 3 times with 100 μl assay buffer. 30 μl of that same buffer is left in each well. Within the Fluorescent Imaging Plate Reader (FLIPR, Molecular Devices), test compounds are added to the plate in a volume of 25 μl, incubated for 5 min and finally 25 μl of agonist is added. Fluorescence is measured for each well at 1 second intervals for 5 minutes and the height of each fluorescence peak is compared to the height of the fluorescence peak induced by 70 pM Ala-6,12 orexin-A with buffer in place of antagonist. For each antagonist, IC50 value (the concentration of compound needed to inhibit 50% of the agonist response) is determined. Alternatively, compound potency can be assessed by a radioligand binding assay (described in Bergman et. al. Bioorg. Med. Chem. Lett. 2008, 18, 1425-1430) in which the inhibition constant (Ki) is determined in membranes prepared from CHO cells expressing either the OX1 or OX2 receptor. The intrinsic orexin receptor antagonist activity of a compound which may be used in the present invention may be determined by these assays.

Sequence of human orexin-2 receptor (O43614 whole entry): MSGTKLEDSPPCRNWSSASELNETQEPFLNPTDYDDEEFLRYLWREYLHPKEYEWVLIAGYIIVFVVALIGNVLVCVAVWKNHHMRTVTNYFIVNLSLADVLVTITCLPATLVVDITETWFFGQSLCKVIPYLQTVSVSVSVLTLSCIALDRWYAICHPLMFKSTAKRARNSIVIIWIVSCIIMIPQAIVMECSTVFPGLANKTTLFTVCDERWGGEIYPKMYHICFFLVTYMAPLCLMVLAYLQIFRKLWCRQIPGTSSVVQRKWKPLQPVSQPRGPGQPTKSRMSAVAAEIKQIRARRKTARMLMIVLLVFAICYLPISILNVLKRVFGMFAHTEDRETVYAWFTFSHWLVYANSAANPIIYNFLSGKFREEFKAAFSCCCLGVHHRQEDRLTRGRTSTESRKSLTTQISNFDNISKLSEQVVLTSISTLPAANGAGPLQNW

Point of comparison: `CCN(CCN(C)c1cc(C#N)ccn1)C(=O)c1ccccc1-n1cccn1` [Example F-12, N-{2-[(4-cyanopyridin-2-yl)(methyl)amino]ethyl}-N-ethyl-2-(1H-pyrazol-1-yl)benzamide], IC50 49.6 nM. Against it:
- CCOc1ccccc1C(=O)N(CC)CCN(C)c1cccc(C(C)(C)O)n1 [Example I-18, 2-ethoxy-N-ethyl-N-(2-((6-(2-hydroxypropan-2-yl)pyridin-2-yl)(methyl)amino)ethyl)benz-amide] — 3.1-fold higher, 154 nM
- CCN(CCN(C)c1nc(C)cc(C)n1)C(=O)c1cccnc1OC(C)C [Example B-5, N-(2-((4,6-dimethylpyrimidin-2-yl)(methyl)amino)ethyl)-N-ethyl-2-isopropoxynicotinamide] — 1.6-fold higher, 80 nM
- CCN(CCN(C)c1nccc(C(C)(C)O)n1)C(=O)c1cccnc1CC(F)(F)F [Example H-23, N-ethyl-N-(2-((4-(2-hydroxypropan-2-yl)pyrimidin-2-yl)(methyl)amino)ethyl)-2-(2,2,2-trifluoroethyl)nicotinamide] — 3.6-fold higher, 179 nM
- CCN(CCN(C)c1cc(C#N)ccn1)C(=O)c1cc(F)ccc1-n1nccn1 [Example F-30, N-{2-[(4-cyanopyridin-2-yl)(methyl)amino]ethyl}-N-ethyl-5-fluoro-2-(2H-1,2,3-triazol-2-yl)benzamide] — 2-fold lower, 24.4 nM
- CCN(CCN(C)c1nccc(C(C)(C)O)n1)C(=O)c1ccccc1OC(F)(F)F [Example H-27] — 5-fold lower, 10 nM
- CCN(CCN(C)c1cc(C#N)ccn1)C(=O)c1cccc2oc(=O)[nH]c12 [Example F-23, N-{2-[(4-cyanopyridin-2-yl)(methyl)amino]ethyl}-N-ethyl-2-oxo-2,3-dihydro-1,3-benzoxazole-4-carboxamide] — 200-fold higher, 10000 nM
- CCN(CCN(C)c1nc(C)cc(C)n1)C(=O)c1ccccc1OCC(F)(F)F [Example B-17, N-{2-[(4,6-dimethylpyrimidin-2-yl)(methyl)amino]ethyl}-N-ethyl-2-(2,2,2-trifluoroethoxy)-benzamide] — 4.4-fold lower, 11.2 nM
- CCN(CCN(C)c1cc(C#N)ccn1)C(=O)c1ccccc1C1(C#N)CCOCC1 [Example F-10, N-{2-[(4-cyanopyridin-2-yl)(methyl)amino]ethyl}-2-(4-cyanotetrahydro-2H-pyran-4-yl)-N-ethylbenzamide] — 150-fold higher, 7200 nM
- CCN(CCN(C)c1nccc(C(C)(C)O)n1)C(=O)c1ccccc1OCC(F)(F)F [Example H-20, N-ethyl-N-(2-((4-(2-hydroxypropan-2-yl)pyrimidin-2-yl)(methyl)amino)ethyl)-2-(2,2,2-trifluoroethoxy)benzamide] — 1.6-fold lower, 32 nM
- CCN(CCN(C)c1nc(Cl)cc(N(C)C)n1)C(=O)c1ccccc1-n1nccn1 [Example E-11, N-(2-{[4-chloro-6-(dimethylamino)pyrimidin-2-yl](methyl)amino}ethyl)-N-ethyl-2-(2H-1,2,3-triazol-2-yl)benzamide] — 2.7-fold lower, 18.4 nM
- CCN(CCNc1nc(C)cc(C)n1)C(=O)c1ccccc1-n1nccn1 [Example A-5, N-(2-((4,6-dimethylpyrimidin-2-yl)amino)ethyl)-N-ethyl-2-(2H-1,2,3-triazol-2-yl)benzamide] — 35-fold higher, 1760 nM
- CCN(CCN(C)c1nccc(C(C)(C)O)n1)C(=O)c1ccccc1CC(F)(F)F [Example H-21, N-ethyl-N-(2-((4-(2-hydroxypropan-2-yl)pyrimidin-2-yl)(methyl)amino)ethyl)-2-(2,2,2-trifluoroethyl)benzamide] — 2.8-fold lower, 18 nM
- CCN(CCN(C)c1cc(C#N)ccn1)C(=O)c1cccnc1Oc1ccccc1 [Example F-7, N-{2-[(4-cyanopyridin-2-yl)(methyl)amino]ethyl}-N-ethyl-2-phenoxypyridine-3-carboxamide] — 200-fold higher, 10000 nM
- CCN(CCN(C)c1nccc(C(C)(C)O)n1)C(=O)c1cccnc1OCC(F)F [Example H-16, 2-(2,2-difluoroethoxy)-N-ethyl-N-(2-((4-(2-hydroxypropan-2-yl)pyrimidin-2-yl)(methyl)amino)ethyl) nicotinamide] — 2-fold lower, 24.2 nM
- CCN(CCN(C)c1cccc(C(C)(C)O)n1)C(=O)c1ccccc1C1CC1(F)F (centres unmarked) [Example I-20, 2-(2,2-difluorocyclopropyl)-N-ethyl-N-(2-((6-(2-hydroxypropan-2-yl)pyridin-2-yl)(methyl)amino)ethyl)benz-amide] — within 1.5-fold, 36.4 nM
- CCN(CCN(C)c1cc(C#N)ccn1)C(=O)c1ccccc1OCCF [Example F-13, N-{2-[(4-cyanopyridin-2-yl)(methyl)amino]ethyl}-N-ethyl-2-(2-fluoroethoxy)benzamide] — within 1.5-fold, 48.4 nM
- CCN(CCN(C)c1nccc(C(C)(C)O)n1)C(=O)c1nccnc1-n1cccn1 [Example H-32, N-ethyl-N-(2-((4-(2-hydroxypropan-2-yl)pyrimidin-2-yl)(methyl)amino)ethyl)-3-(1H-pyrazol-1-yl)pyrazine-2-carboxamide] — within 1.5-fold, 54 nM
- CCN(CCN(C)c1cc(C#N)ccn1)C(=O)c1ccccc1-c1ncc[nH]1 [Example F-24, N-{2-[(4-cyanopyridin-2-yl)(methyl)amino]ethyl}-N-ethyl-2-(1H-imidazol-2-yl)benzamide] — 33-fold higher, 1630 nM
- CCN(CCN(C)c1nc(C)cc(C)n1)C(=O)c1ccccc1-n1nccn1 [Example A-1, N-(2-((4,6-dimethylpyrimidin-2-yl)(methyl)amino)ethyl)-N-ethyl-2-(2H-1,2,3-triazol-2-yl)benzamide] — within 1.5-fold, 36.5 nM
- CCN(CCN(C)c1nc(C)cc(C)n1)C(=O)c1ccccc1N1CCCC1 [Example B-30, N-{2-[(4,6-dimethylpyrimidin-2-yl)(methyl)amino]ethyl}-N-ethyl-2-pyrrolidin-1-ylbenzamide] — 2.7-fold lower, 18.5 nM
- CCN(CCN(C)c1cccc(C(C)(C)O)n1)C(=O)c1ccccc1-n1nccn1 [Example I-1, N-ethyl-N-(2-((6-(2-hydroxypropan-2-yl)pyridin-2-yl)(methyl)amino)ethyl)-2-(2H-1,2,3-triazol-2-yl)benzamide] — 4-fold lower, 12.4 nM
- CCOc1ncccc1C(=O)N(CC)CCN(C)c1nccc(C(C)(C)O)n1 [Example H-15, 2-ethoxy-N-ethyl-N-(2-((4-(2-hydroxypropan-2-yl)pyrimidin-2-yl)(methyl)amino)ethyl) nicotinamide] — 1.6-fold higher, 77.3 nM
- CCN(CCN(C)c1cccc(C(C)(C)O)n1)C(=O)c1ccccc1-n1cccn1 [Example I-10, N-ethyl-N-(2-((6-(2-hydroxypropan-2-yl)pyridin-2-yl)(methyl)amino)ethyl)-2-(1H-pyrazol-1-yl)benzamide] — 1.9-fold higher, 93.3 nM
- CCOc1ncccc1C(=O)N(CC)CCN(C)c1cccc(C(C)(C)O)n1 [Example I-25, 2-ethoxy-N-ethyl-N-(2-((6-(2-hydroxypropan-2-yl)pyridin-2-yl)(methyl)amino)ethyl)nicotin-amide] — 9.4-fold higher, 466 nM
- CCN(CCN(C)c1nc(C)cc(C)n1)C(=O)c1cccnc1OCC(F)(F)F [Example B-11, N-(2-((4,6-dimethylpyrimidin-2-yl)(methyl)amino)ethyl)-N-ethyl-2-(2,2,2-trifluoroethoxy)nicotinamide] — 2.5-fold lower, 19.8 nM
- CCN(CCN(C)c1cc(C#N)ccn1)C(=O)c1ccccc1OC(F)(F)F [Example F-1, {2-[(4-cyanopyridin-2-yl)(methyl)amino]ethyl}-N-ethyl-2-(trifluoromethoxy)benzamide] — within 1.5-fold, 58.2 nM
- CCN(CCN(C)c1cc(C#N)ccn1)C(=O)c1ccccc1-n1cnnn1 [Example F-25, N-{2-[(4-cyanopyridin-2-yl)(methyl)amino]ethyl}-N-ethyl-2-(1H-tetrazol-1-yl)benzamide] — 89-fold higher, 4390 nM
- CCN(CCN(C)c1nc(C)cc(C)n1)C(=O)c1ccccc1C1CC1 [Example B-1, 2-cyclopropyl-N-(2-((4,6-dimethylpyrimidin-2-yl)(methyl)amino)ethyl)-N-ethylbenzamide] — 1.9-fold lower, 26.4 nM
- CCN(CCN(C)c1nc(C)cc(C)n1)C(=O)c1ccc(OC)nc1C1CC1 [Example B-19, 2-cyclopropyl-N-{2-[(4,6-dimethylpyrimidin-2-yl)(methyl)amino]ethyl}-N-ethyl-6-methoxypyridine-3-carboxamide] — 1.5-fold lower, 32.1 nM
- CCN(CCN(C)c1nccc(C(C)(C)O)n1)C(=O)c1ncccc1-c1ccccc1 [Example H-31, N-ethyl-N-(2-((4-(2-hydroxypropan-2-yl)pyrimidin-2-yl)(methyl)amino)ethyl)-3-phenylpicolinamide] — 2.2-fold lower, 23 nM
- CCN(CCN(C)c1cccc(C(C)(C)O)n1)C(=O)c1nccnc1-n1cccn1 [Example I-11, N-ethyl-N-(2-((6-(2-hydroxypropan-2-yl)pyridin-2-yl)(methyl)amino)ethyl)-3-(1H-pyrazol-1-yl)pyrazine-2-carboxamide] — 6.6-fold higher, 328 nM
